In US20110039762A1, “TARGETED ANTIMICROBIAL MOIETIES” (C3 JIAN, INC., priority 2009, published 2011):
Values after ≈ are worked out from the molar mass of the structure shown. “Also recorded” adds a separate entry of the source. Read-outs that look alike come from different tables or passages of the source. Bridge positions count the residues as written; N and C are the ends. Square brackets hold non-standard residues; d marks the D form. Ends that are not written are not given here. Peptide text beside a SMILES is read from it. I, II: the chains in the order shown. Aoc = NCCCCCCCC(=O)O

Legend:
S. mutans [1] = assay type: cell-based, Streptococcus mutans
P. aeruginosa [2] = assay type: cell-based, Pseudomonas aeruginosa
Method: (§1) Typically, the in vitro antimicrobial activity of antimicrobial agents is tested using standard NCCLS bacterial inhibition assays, or MIC tests (see, National Committee on Clinical Laboratory Standards “Performance Standards for Antimicrobial Susceptibility Testing,” NCCLS Document M100-S5 Vol. 14, No. 16, December 1994; “Methods for dilution antimicrobial susceptibility test for bacteria that grow aerobically-Third Edition,” Approved Standard M7-A3, National Committee for Clinical Standards, Villanova, Pa.).
(§2) Briefly, ˜1×10^5 cfu/mL bacteria were diluted in TH (S. mutans), or Mueller-Hinton (MH) broth (all other organisms) and distributed to 96-well plates. Serially-diluted (2-fold) peptides were then added and the plates incubated at 37° C. for 18-24 h. […] All experiments were conducted 10 times.

S. epidermidis [3] = assay type: cell-based, Staphylococcus epidermidis
How it was run: (§3)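 Following NCCLS broth microdilution guidance, bacteria at ˜1×10^5 cfu/mL in Mueller-Hinton broth received 2-fold serially diluted peptides and were incubated at 37° C. for 18-24 h. Experiments were run 10 times.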

E. coli [4] = assay type: cell-based, Escherichia coli
Method: as §1, §2

[5] = system: Klebsiella pneumoniae KAY 2026; assay type: cell-based
Method: (§4) Aerobic Gram-negative organisms were grown in Lauri-Bertaini (LB) broth and Gram-positive bacteria in Brain-heart infusion (BHI) broth. Streptococcus mutans JM11 (spectinomycin resistant, UA140 background) was grown in Todd-Hewitt (TH) broth under anaerobic conditions (80% N2, 15% CO2, 5% H2) at 37° C. Merritt et al. (2005) J Microbiol Meth., 61: 161-170. All bacteria were grown overnight to an OD600 of 0.8-1.0 prior to appropriate dilution and antimicrobial testing.
as §2

[6] = system: Staphylococcus aureus Newmann; assay type: cell-based
Method: as §4, §2

S. mutans [7] = assay: Post-antibiotic effect assay (growth retardation after 10 min exposure); assay type: cell-based, Streptococcus mutans; conditions: S. mutans monoculture, peptide 10 min, then fresh medium
Method: The activity and selectivity of MH-STAMPs after a 10 min incubation was determined by growth retardation experiments against targeted and untargeted bacteria in monocultures, as described previously (Id.). Cells from overnight cultures were diluted to ˜5×10^6 cfu/mL in MH (or TH with 1% sucrose for S. mutans), normalized by OD600 0.05-0.1 and seeded to 96-well plates. Cultures were then grown under the appropriate conditions for 2 h (3 h for S. mutans) prior to the addition of peptides for 10 min. Plates were then centrifuged at 3000×g for 5 min, the supernatants discarded, fresh medium returned (MH or TH without sucrose for S. mutans), and incubation resumed. Bacterial growth after treatment was then monitored over time by OD600.

[8] = system: Mixed planktonic populations of P. aeruginosa, E. coli, S. epidermidis, and S. mutans; assay: Microbial population shift assay; assay type: cell-based; conditions: 10 μM peptide, 24 h
Method: Peptide (10 μM) or mock-treatment (1× PBS) was then added and samples were incubated at 37° C. for 24 h under anaerobic conditions (80% N2, 15% CO2, 5% H2). […] Plates were then incubated 37° C. under aerobic conditions (TH plates were incubated anaerobically) and colonies counted after 24 h to determine survivors. […] Gram stains and direct microscopic observation (from select isolated colonies) were undertaken to confirm species identity (data not shown). The detection limit of the assay was 200 cfu/mL.

MRSA [9] = assay: MIC (broth microdilution); assay type: cell-based, Methicillin-resistant Staphylococcus aureus
How it was run: as §3

T. rubrum = assay: MIC (broth microdilution); assay type: cell-based, Trichophyton rubrum
Method: as §1, §2

A. niger = assay: MIC (broth microdilution); assay type: cell-based, Aspergillus niger
How it was run: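 MIC determined per NCCLS standard microdilution, with peptide 2-fold dilution series against ˜1×10^5 cfu/mL cells in Mueller-Hinton medium, incubated 18-24 h at 37° C.; ten independent experiments.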

B. subtilis [10] = assay: MIC (broth microdilution); assay type: cell-based, Bacillus subtilis
How it was run: as §3

C. jeikeium [11] = assay: MIC (broth microdilution); assay type: cell-based, Corynebacterium jeikeium
Method: as §1, §2

B. subtilis [12] = assay: Kill or inhibit growth/proliferation; morphology, biofilm and growth disruption (Tables 5, 6); assay type: cell-based, Bacillus subtilis; parameters: key: A: Peptide aggregates; B: Less hyphal formation; Clumps; Diffuse clumps and small polyps; F: Diffuse growth; H: Thin; I: Growth inhibition; Microcolony formation; Rippled; Small polyps; Thick; W: Halo formation on top, microlonies on bottom
C. jeikeium [13] = assay: as above; assay type: cell-based, Corynebacterium jeikeium; parameters: key: A: Peptide aggregates; B: Less hyphal formation; Clumps; Diffuse clumps and small polyps; F: Diffuse growth; H: Thin; I: Growth inhibition; Microcolony formation; Rippled; Small polyps; Thick; W: Halo formation on top, microlonies on bottom
M. luteus = assay: as above; assay type: cell-based, Micrococcus luteus; parameters: key: A: Peptide aggregates; B: Less hyphal formation; Clumps; Diffuse clumps and small polyps; F: Diffuse growth; H: Thin; I: Growth inhibition; Microcolony formation; Rippled; Small polyps; Thick; W: Halo formation on top, microlonies on bottom
MRSA [14] = assay: as above; assay type: cell-based, Methicillin-resistant Staphylococcus aureus; parameters: key: A: Peptide aggregates; B: Less hyphal formation; Clumps; Diffuse clumps and small polyps; F: Diffuse growth; H: Thin; I: Growth inhibition; Microcolony formation; Rippled; Small polyps; Thick; W: Halo formation on top, microlonies on bottom
S. epidermidis [15] = assay: as above; assay type: cell-based, Staphylococcus epidermidis; parameters: key: A: Peptide aggregates; B: Less hyphal formation; Clumps; Diffuse clumps and small polyps; F: Diffuse growth; H: Thin; I: Growth inhibition; Microcolony formation; Rippled; Small polyps; Thick; W: Halo formation on top, microlonies on bottom
S. pneumoniae = assay: as above; assay type: cell-based, Streptococcus pneumoniae; parameters: key: A: Peptide aggregates; B: Less hyphal formation; Clumps; Diffuse clumps and small polyps; F: Diffuse growth; H: Thin; I: Growth inhibition; Microcolony formation; Rippled; Small polyps; Thick; W: Halo formation on top, microlonies on bottom
C. jejuni = assay: as above; assay type: cell-based, Campylobacter jejuni; parameters: key: A: Peptide aggregates; B: Less hyphal formation; Clumps; Diffuse clumps and small polyps; F: Diffuse growth; H: Thin; I: Growth inhibition; Microcolony formation; Rippled; Small polyps; Thick; W: Halo formation on top, microlonies on bottom
P. aeruginosa [16] = assay: as above; assay type: cell-based, Pseudomonas aeruginosa; parameters: key: A: Peptide aggregates; B: Less hyphal formation; Clumps; Diffuse clumps and small polyps; F: Diffuse growth; H: Thin; I: Growth inhibition; Microcolony formation; Rippled; Small polyps; Thick; W: Halo formation on top, microlonies on bottom
C. albicans [17] = assay: as above; assay type: cell-based, Candida albicans; parameters: key: A: Peptide aggregates; B: Less hyphal formation; Clumps; Diffuse clumps and small polyps; F: Diffuse growth; H: Thin; I: Growth inhibition; Microcolony formation; Rippled; Small polyps; Thick; W: Halo formation on top, microlonies on bottom
microorganisms = assay: Peptides having multiple activities (targeting/binding, antimicrobial, growth or phenotype altering)
Text: In certain embodiments, peptides described herein can have multiple activities. Thus for example, a peptide can have both binding/targeting activity and antimicrobial activity. Such peptides can be used, e.g., in a chimeric construct, for any or all of these properties. Thus, for example, a peptide designated “B” in Table 8 can be used as a targeting peptide. If it is also designated G or M it can also be used for antimicrobial activity.

A. baumannii = assay: MIC (broth microdilution); assay type: cell-based, Acinetobacter baumannii
Method: as §1, §2

C. difficile = assay: MIC (broth microdilution); assay type: cell-based, Clostridium difficile
Method: as §1, §2

C. albicans [18] = assay: MIC (broth microdilution); assay type: cell-based, Candida albicans
Method: as §1, §2

[19] = system: microorganisms (e.g., bacteria, yeasts, fungi); assay: Targeting peptide binding to target microorganisms (Table 3); conditions: microorganism(s) the targeting peptide binds; binding in aqueous buffers depending on peptide solubility, preferably 1x PBS
E. coli [20] = assay: Kill or inhibit growth/proliferation; morphology, biofilm and growth disruption (Tables 5, 6); assay type: cell-based, Escherichia coli; parameters: key: A: Peptide aggregates; B: Less hyphal formation; Clumps; Diffuse clumps and small polyps; F: Diffuse growth; H: Thin; I: Growth inhibition; Microcolony formation; Rippled; Small polyps; Thick; W: Halo formation on top, microlonies on bottom

| Compound | MIC (P. aeruginosa [2]) | MIC (S. epidermidis [3]) | MIC (T. rubrum) | MIC (A. niger) | MIC (B. subtilis [10]) | MIC (C. jeikeium [11]) | Organism, effect (B. subtilis [12]) | Organism, effect (M. luteus) | Organism, effect (S. epidermidis [15]) | Organism, effect (S. pneumoniae) | Organism, effect (P. aeruginosa [16]) | Organism, effect (C. albicans [17]) | Activities (microorganisms) | MIC (A. baumannii) | MIC (C. difficile) | MIC (S. epidermidis [3]; S. epidermidis) | MIC (C. albicans [18]) | Target(s) [19] | further results |
| --- | --- | --- | --- | --- | --- | --- | --- | --- | --- | --- | --- | --- | --- | --- | --- | --- | --- | --- | --- |
| CC[C@H](C)[C@H](NC(=O)[C@H](Cc1ccccc1)NC(=O)CCCCCCCNC(=O)[C@H](CCCCNC(=O)CNC(=O)CNC(=O)CNC(=O)[C@H](Cc1c[nH]cn1)NC(=O)[C@H](CCCCN)NC(=O)[C@H](CCCNC(=N)N)NC(=O)[C@H](Cc1c[nH]cn1)NC(=O)[C@H](CCCCN)NC(=O)[C@H](CCCNC(=N)N)NC(=O)[C@H](Cc1c[nH]cn1)NC(=O)[C@H](CCCCN)NC(=O)[C@H](CCCNC(=N)N)NC(=O)[C@H](Cc1c[nH]cn1)NC(=O)[C@H](CCCCN)NC(=O)[C@@H](N)CCCCN)NC(=O)CNC(=O)CNC(=O)CNC(=O)[C@H](C)NC(=O)[C@H](CCC(=O)O)NC(=O)[C@H](CC(N)=O)NC(=O)[C@H](C)NC(=O)[C@H](C)NC(=O)[C@H](CC(=O)O)NC(C)=O)C(=O)N[C@@H](CCCNC(=N)N)C(=O)N[C@@H](CCCCN)C(=O)N[C@@H](Cc1ccccc1)C(=O)N[C@@H](CC(C)C)C(=O)N[C@@H](CCCCN)C(=O)N[C@@H](CCCCN)C(=O)N[C@@H](Cc1c[nH]c2ccccc12)C(=O)N[C@@H](CC(C)C)C(=O)N[C@@H](CC(C)C)C(N)=O [BL(KH)-20] (I: Ac-DAANEAGGGK[Aoc]FIRKFLKKWLL-NH2 / II: H-KKHRKHRKHRKHGGG; amide I:10-II:C) | 27.5 ± 7.90 µM (≈ 120 µg/mL) | 6.25 µM (≈ 27.3 µg/mL) |  |  |  |  |  |  |  |  |  |  |  |  |  |  |  |  | MIC (S. mutans [1]): 6.25 µM (≈ 27.3 µg/mL); MIC (E. coli [4]): 6.25 µM (≈ 27.3 µg/mL); MIC [5]: 6.25 µM (≈ 27.3 µg/mL); MIC [6]: 6.25 µM (≈ 27.3 µg/mL); bacterial growth (OD600) after treatment (S. mutans [7]): not altered; recoverable (surviving) cfu/mL ([8]; E. coli in mixed culture): unchanged numbers; recoverable (surviving) cfu/mL ([8]; P. aeruginosa in mixed culture): not observed; recoverable (surviving) cfu/mL ([8]; S. epidermidis in mixed culture): unchanged numbers; recoverable (surviving) cfu/mL ([8]; S. mutans in mixed culture): higher than input cfu/mL |
| GSVIKKRRKRMAKKKHRKLLKKTRIQRRRAGK [PF-527] | P. aeruginosa, 50 μM | S. epidermidis, 25 μM | T. rubrum, 25 μM | A. niger, 50 μM | B. subtilis, 12.5 μM | C. jeikeium, 6.25 μM | B. subtilis (I) | M. luteus (S) | S. epidermidis (M) | S. pneumoniae (H) | P. aeruginosa (I) | C. albicans (B) | G B M |  |  |  |  |  | MIC (MRSA [9]): MRSA , 50 μM; Organism, effect (C. jeikeium [13]): C. jeikeium (I); Organism, effect (MRSA [14]): MRSA (I); Organism, effect (C. jejuni): C. jejuni (M) |
| KNKKQTDILEKVKEILDKKKKTKSVGQKLY [PF-538] |  |  |  |  |  |  |  |  |  | S. pneumoniae (H) |  |  | G M | A. baumannii, 25 μM | C. difficile, 25 μM |  |  |  |  |
| LSLATFAKIFMTRSNWSLKRFNRL [PF-278] |  |  | T. rubrum, 50 μM |  |  |  |  | M. luteus (R) | S. epidermidis (I) |  |  | C. albicans (B) | G B M |  |  | S. epidermidis, 50 μM | C. albicans, 50 μM | M. luteus; also recorded: A. baumannii |  |
| MKRRRCNWCGKLFYLEEKSKEAYCCKECRKKAKKVKK [PF-307] |  |  | T. rubrum, 50 μM |  | B. subtilis, 50 μM |  | B. subtilis (H) |  | S. epidermidis (T) |  |  | C. albicans (B) | G B M |  |  |  | C. albicans, 50 μM | S. epidermidis; also recorded: B. subtilis; also recorded: B. fragilis; also recorded: C. difficile |  |
| YIQFHLNQQPRPKVKKIKIFL-NH2 [PF-531] |  |  | T. rubrum, 50 μM | A. niger, 25 μM | B. subtilis, 25 μM | C. jeikeium, 6.25 μM |  |  | S. epidermidis (I) | S. pneumoniae (C) | P. aeruginosa (I) |  | G M | A. baumannii, 25 μM | C. difficile, 12.5 μM | S. epidermidis, 50 μM |  |  | MIC (S. mutans [1]; S. mutans): S. mutans, 12.5 μM; MIC (P. aeruginosa [2]; P. aeruginosa): P. aeruginosa, 50 μM; Organism, effect (E. coli [20]): E. coli (M) |
